Experimental data: BindingDB's records for patent US11980598 (Beijing Greatway Pharmaceutical Technology Co., 2024)

Target: T1, 5-hydroxytryptamine receptor 2C (Homo sapiens, UniProt P28335)
T1 sequence (P28335 whole entry): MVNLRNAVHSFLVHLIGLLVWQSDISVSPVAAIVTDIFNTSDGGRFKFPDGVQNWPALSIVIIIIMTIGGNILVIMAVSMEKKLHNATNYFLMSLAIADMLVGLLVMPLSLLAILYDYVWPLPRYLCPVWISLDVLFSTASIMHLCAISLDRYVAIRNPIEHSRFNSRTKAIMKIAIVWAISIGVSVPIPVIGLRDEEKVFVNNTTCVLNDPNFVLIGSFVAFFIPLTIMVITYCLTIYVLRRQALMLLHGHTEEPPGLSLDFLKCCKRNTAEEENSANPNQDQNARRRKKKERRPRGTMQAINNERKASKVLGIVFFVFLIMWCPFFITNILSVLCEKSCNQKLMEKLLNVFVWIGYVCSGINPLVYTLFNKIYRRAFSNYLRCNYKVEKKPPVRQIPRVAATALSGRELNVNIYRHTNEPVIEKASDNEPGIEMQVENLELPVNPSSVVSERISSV
Assay: 5-HT2C Receptor Binding Test
Description: 50 μg of the receptor membrane protein 5-HT2C was added to all the tubes. […] All the tubes were added with 40 μL of [3H]-LSD (lysergic acid diethylamide), respectively. […] The filter paper was taken out and dried by baking, and then placed in a scintillation bottle. 1 mL of the scintillation liquid was added, and the radioactive intensity was measured by a liquid scintillation counter

Compound | IC50
COc1cc2c(CCNC(C)=O)cccc2cc1Cl [US11980598, Compound 1] | 0.00077 µM
COc1cc2c(CCNC(C)=O)cccc2cc1F [US11980598, Compound 4] | 0.0208 µM
